# Measurements: US20140212382A1, “PURINE MONOPHOSPHATE PRODRUGS FOR TREATMENT OF VIRAL INFECTIONS” (EMORY UNIVERSITY, priority 2011, published 2014)
# Key:
# [1] = system: HCV Replicon RNA in Huh 7 Clone B cells; experiment: HCV replicon assay; assay type: cell-based; details: HCV replicon assay
# Method: Huh 7 Clone B cells containing HCV Replicon RNA were seeded in a 96-well plate at 5000 cells/well, and the compounds tested at 10 μM in triplicate immediately after seeding. Following five days incubation (37° C., 5% CO2), total cellular RNA was isolated using the versaGene RNA purification kit from Gentra. Replicon RNA and an internal control (TaqMan rRNA control reagents, Applied Biosystems) were amplified in a single step multiplex Real Time RT-PCR Assay. The antiviral effectiveness of the compounds was calculated by subtracting the threshold RT-PCR cycle of the test compound from the threshold RT-PCR cycle of the no-drug control (ΔCt HCV). A ΔCt of 3.3 equals a 1-log reduction (equal to 90% less starting material) in Replicon RNA levels. The cytotoxicity of the compounds was also calculated using the ΔCt rRNA values. (2′-C-Me-C) was used as the control. To determine EC90 and IC50 values^2, ΔCt: values were first converted into a fraction of the starting material,^3 and then were used to calculate the % inhibition. The data on three compounds (Compound 12, Compound 8a, and compound 8b-up) is shown below in Table 3.
# HCV 1a replicon = experiment: HCV replicon, genotype 1a; assay type: cell-based
# HCV 1b S282T replicon = experiment: HCV resistant replicon 1b S282T; assay type: cell-based
# HCV 2b chimera replicon = experiment: HCV replicon, 2b chimera; assay type: cell-based
# HCV 3a chimera replicon = experiment: HCV replicon, 3a chimera; assay type: cell-based
# HCV 2a replicon = experiment: HCV replicon, genotype 2a; assay type: cell-based
# HCV 1b replicon = experiment: HCV replicon, genotype 1b; assay type: cell-based
# HCV 4a chimera replicon = experiment: HCV replicon, 4a chimera; assay type: cell-based
# HCV 1b M414I replicon = experiment: HCV resistant replicon 1b M414I; assay type: cell-based
# HCV 5a chimera replicon = experiment: HCV replicon, 5a chimera; assay type: cell-based
# HCV 1b C316Y replicon = experiment: HCV resistant replicon 1b C316Y; assay type: cell-based
# [2] = system: MtDNA, HepG2 Hepatoma cells; experiment: Mitochondrial toxicity in HepG2 cells: mitochondrial DNA content; assay type: cell-based; details: HepG2 Hepatoma cells, 14 day assay; for % Inhibition MtDNA: 10 μM
# From the text: A real-time PCR assay to accurately quantify mitochondrial DNA content has been developed (see Stuyver L J, Lostia S, Adams M, Mathew J S, Pai B S, Grier J, Tharnish P M, Choi Y, Chong Y, Choo H, Chu C K, Otto M J, Schinazi R F. Antiviral activities and cellular toxicities of modified 2′,3′-dideoxy-2′,3′-didehydrocytidine analogs. Antimicrob. Agents Chemother. 2002; 46: 3854-60). This assay was used in all studies described in this application that determine the effect of nucleoside analogs on mitochondrial DNA content. In this assay, low-passage-number HepG2 cells were seeded at 5,000 cells/well in collagen-coated 96-well plates. Nucleoside monophosphate analogs were added to the medium to obtain final concentrations of 0 μM, 0.1 μM, 10 μM and 100 μM. On culture day 7, cellular nucleic acids were prepared by using commercially available columns (RNeasy 96 kit; Qiagen). […] The mitochondrial cytochrome c oxidase subunit II (COXII) gene and the β-actin or rRNA gene were amplified from 5 μl of the eluted nucleic acids using a multiplex Q-PCR protocol with suitable primers and probes for both target and reference amplifications. For COXII the following sense, probe and antisense primers are used, respectively: 5′-[…]-3′,5′-tetrachloro-6-carboxyfluorescein-[…]-TAMRA-3′ and 5′-[…]-3′. For exon 3 of the β-actin gene (GenBank accession number E01094) the sense, probe, and antisense primers are 5′-[…]-3′,5′-6-[…]-3′ and 5′-[…]-3′, respectively. The primers and probes for the rRNA gene are commercially available from Applied Biosystems. Since equal amplification efficiencies were obtained for all genes, the comparative CT method was used to investigate potential inhibition of mitochondrial DNA synthesis. The comparative CT method uses arithmetic formulas in which the amount of target (COXII gene) is normalized to the amount of an endogenous reference (the β-actin or rRNA gene) and is relative to a calibrator (a control with no drug at day 7). The arithmetic formula for this approach is given by 2-ΔΔCT, where ΔΔCT is (CT for average target test sample−CT for target control)−(CT for average reference test−CT for reference control) (see Johnson M R, K Wang, J B Smith, M J Heslin, R B Diasio. Quantitation of dihydropyrimidine dehydrogenase expression by real-time reverse transcription polymerase chain reaction. Anal. Biochem. 2000; 278:175-184). A decrease in mitochondrial DNA content in cells grown in the presence of drug would indicate mitochondrial toxicity.
# (§1) The effect of compounds 8b-up, 12, and 8a on nuclear or mitochondrial DNA, or lactic acid production, in HepG2 Hepatoma cells was analyzed over a 14 day period. The procedure outlined in section (i) above was used for this analysis.
# HepG2 Hepatoma cells = experiment: Lactic acid production in HepG2 cells; assay type: cell-based; details: 10 μM, 14 day assay
# Method: The effect on the growth of HepG2 cells was determined by incubating cells in the presence of 0 μM, 0.1 μM, 1 μM, 10 μM and 100 μM drug. Cells (5×10^4 per well) were plated into 12-well cell culture clusters in minimum essential medium with nonessential amino acids supplemented with 10% fetal bovine serum, 1% sodium pyruvate, and 1% penicillin/streptomycin and incubated for 4 days at 37° C. At the end of the incubation period the cell number was determined using a hemocytometer. Also taught by Pan-Zhou X-R, Cui L, Zhou X-J, Sommadossi J-P, Darley-Usmer V M. “Differential effects of antiretroviral nucleoside analogs on mitochondrial function in HepG2 cells” Antimicrob. Agents Chemother. 2000; 44: 496-503. […] At day 4 the number of cells in each well was determined and the culture medium collected. The culture medium was filtered, and the lactic acid content in the medium determined using a colorimetric lactic acid assay (Sigma-Aldrich). Since lactic acid product can be considered a marker for impaired mitochondrial function, elevated levels of lactic acid production detected in cells grown in the presence of 2,6-diamino 2′-C-Me purine nucleoside monophosphate prodrug analogs would indicate a drug-induced cytotoxic effect.
# The effect of compounds 8b-up, 12, and 8a on nuclear or mitochondrial DNA, or lactic acid production, in HepG2 Hepatoma cells was analyzed over a 14 day period. […]
# adenosine deaminase = experiment: Adenosine deaminase assay; assay type: in vitro ADME; details: 7 minutes with 0.002 units of enzyme; 50 μM, pH 7.4, 25° C.
# Method: To determine the propensity for deamination of the nucleosides and monophosphate prodrugs by adenosine deaminase, nucleoside analogues can be incubated with the commercially available purified enzyme, and the reaction can be followed spectrophotometrically. Typical reaction conditions involve preparing a solution containing 50 μM nucleoside analog in 0.5 mL 50 mM potassium phosphate (pH 7.4) at 25° C. The typical reaction time is 7 minutes with 0.002 units of enzyme, and 120 minutes with 0.2 units of enzyme. (The unit definition of adenosine deaminase is one unit will deaminate 1.0 μmol of adenosine to inosine per minute at pH 7.5 at 25° C.) Deoxyadenosine is typically used as a positive control. Deoxyadenosine is 59% deaminated under the given conditions in 7 minutes with 0.002 units of enzyme. Deoxyguanosine is typically used as a negative control. Optical density can be measured at 265 nm or 285 nm. The difference in optical density between the beginning and the end of the experiment is divided by the extinction coefficient, and then multiplied by the volume of the reaction to determine the number of mols of substrate transformed into product. Mols of product would be divided by mols of substrate equivalent to a 100% complete reaction then multiplied by 100 to obtain percent deamination. The limit of detection is typically 0.001 optical density units.
# [3] = system: nuclear DNA, HepG2 Hepatoma cells; experiment: Mitochondrial toxicity in HepG2 cells: nuclear DNA content; assay type: cell-based; details: 10 μM; HepG2 Hepatoma cells, 14 day assay
# Method: This assay was used in all studies described in this application that determine the effect of nucleoside analogs on mitochondrial DNA content. In this assay, low-passage-number HepG2 cells were seeded at 5,000 cells/well in collagen-coated 96-well plates. […] On culture day 7, cellular nucleic acids were prepared by using commercially available columns (RNeasy 96 kit; Qiagen). […] The mitochondrial cytochrome c oxidase subunit II (COXII) gene and the β-actin or rRNA gene were amplified from 5 μl of the eluted nucleic acids using a multiplex Q-PCR protocol with suitable primers and probes for both target and reference amplifications. […] For exon 3 of the β-actin gene (GenBank accession number E01094) the sense, probe, and antisense primers are 5′-[…]-3′,5′-6-[…]-3′ and 5′-[…]-3′, respectively. The primers and probes for the rRNA gene are commercially available from Applied Biosystems. […] The comparative CT method uses arithmetic formulas in which the amount of target (COXII gene) is normalized to the amount of an endogenous reference (the β-actin or rRNA gene) and is relative to a calibrator (a control with no drug at day 7). The arithmetic formula for this approach is given by 2-ΔΔCT, where ΔΔCT is (CT for average target test sample−CT for target control)−(CT for average reference test−CT for reference control) (see Johnson M R, K Wang, J B Smith, M J Heslin, R B Diasio. Quantitation of dihydropyrimidine dehydrogenase expression by real-time reverse transcription polymerase chain reaction. Anal. Biochem. 2000; 278:175-184). A decrease in mitochondrial DNA content in cells grown in the presence of drug would indicate mitochondrial toxicity.
# as §1
# [4] = Cytotoxicity assay, Vero cells; assay type: cell-based; details: African green monkey
# Method: (§2) The toxicity of the compounds was assessed in Vero, human PBM, CEM (human lymphoblastoid), and HepG2 cells, as described previously (see Schinazi R. F., Sommadossi J.-P., Saalmann V., Cannon D. L., Xie M.-Y., Hart G. C., Smith G. A. & Hahn E. F. Antimicrob. Agents Chemother. 1990, 34, 1061-67). Cycloheximide was included as positive cytotoxic control, and untreated cells exposed to solvent would be included as negative controls. The cytotoxicity IC50 was obtained from the concentration-response curve using the median effective method described previously (see Chou T.-C. & Talalay P. Adv. Enzyme Regul. 1984, 22, 27-55; Belen'kii M. S. & Schinazi R. F. Antiviral Res. 1994, 25, 1-11).
# [5] = Cytotoxicity assay, CEM cells; assay type: cell-based; details: human
# Method: as §2
# [6] = Cytotoxicity assay, PBM cells; assay type: cell-based; details: human
# Method: as §2
# HepG2 cells = details: 10 μM; cited from earlier work
smiles,measurement,setting,value
"CCOC(=O)CCc1ccccc1OP(=O)(NC(C)C(=O)OCC)OC[C@H]1O[C@@H](n2cnc3c(N)nc(N)nc32)C(C)(O)C1O (single isomer, unassigned) [Compound 8b-up]",times more potent than 8b-down,[1],approximately 10
same,Fold increase versus 1b WT at the EC90,HCV 1a replicon,++ (++ = 1.1 to 2)
same,Fold increase versus 1b WT at the EC90,HCV 1b S282T replicon,+ (+ = 0.1 to 1)
same,Fold increase versus 1b WT at the EC90,HCV 2b chimera replicon,++ (++ = 1.1 to 2)
same,Fold increase versus 1b WT at the EC90,HCV 3a chimera replicon,+ (+ = 0.1 to 1)
same,Fold increase versus 1b WT at the EC90,HCV 2a replicon,++ (++ = 1.1 to 2)
same,Fold increase versus 1b WT at the EC90,HCV 1b replicon,+ (+ = 0.1 to 1)
same,Fold increase versus 1b WT at the EC90,HCV 4a chimera replicon,+++ (+++ = 2.1 to 3)
same,Fold increase versus 1b WT at the EC90,HCV 1b M414I replicon,+++ (+++ = 2.1 to 3)
same,Fold increase versus 1b WT at the EC90,HCV 5a chimera replicon,++ (++ = 1.1 to 2)
same,Fold increase versus 1b WT at the EC90,HCV 1b C316Y replicon,++ (++ = 1.1 to 2)
same,effect on nuclear or mitochondrial DNA or lactic acid production,"[2]; up to 50 μM, summary also covers nuclear DNA and lactic acid",no significant effect
"Nc1ccn([C@@H]2CS[C@H](CO)O2)c(=O)n1 [Compound 3TC, reference compound]",Lactic acid levels (% of control) ± SD,HepG2 Hepatoma cells,91 ± 2.5 % of control
same,% Inhibition MtDNA,[2],<1/<1%
Nc1ncnc2c1ncn2[C@H]1C[C@H](O)[C@@H](CO)O1 [Deoxyadenosine],percent deamination,adenosine deaminase,59%
"Nc1ccn([C@H]2CC[C@@H](CO)O2)c(=O)n1 [ddC, reference compound]",Lactic acid levels (% of control) ± SD,HepG2 Hepatoma cells,220 ± 11 % of control
same,% Inhibition nuclear DNA,[3],72%
same,% Inhibition MtDNA,[2],100%
CC1(O)C(O)[C@@H](CO)O[C@H]1n1cnc2c(N)nc(N)nc21 (stereo partly shown) [drawing 52],CC50,[4]; Vero cells,> 100 µM
same,CC50,[5]; CEM lymphoblastoid cells,> 100 µM
same,CC50,[6]; PBM cells,> 100 µM
CCOC(=O)[C@H](C)NP(=O)(OC[C@H]1O[C@@H](n2cnc3c(N)nc(N)nc32)C(C)(O)C1O)Oc1ccccc1 (stereo partly shown) [drawing 53],CC50,[4]; Vero,> 100 µM
same,CC50,[5]; CEM,> 100 µM
same,CC50,[6]; PBM,> 100 µM
CCOC(=O)CCc1ccccc1OP(=O)(N[C@H](C)C(=O)OCC)OC[C@H]1O[C@@H](n2cnc3c(N)nc(N)nc32)C(C)(O)C1O (stereo partly shown) [drawing 54],CC50,[4]; Vero,> 100 µM
same,CC50,[5]; CEM,> 100 µM
same,CC50,[6]; PBM,> 100 µM
"O=c1[nH]c(=O)n([C@@H]2O[C@H](CO)[C@@H](O)[C@@H]2F)cc1I [fialuridine, 1,2′-deoxy-2′-fluoro-1-D-arabinofuranosly-5-iodo-uracil]",morphological changes in mitochondria (electron micrographs),HepG2 cells,presence of enlarged mitochondria with morphological changes consistent with mitochondrial dysfunction
